From patent US7989459B2, “Purinones and 1H-imidazopyridinones as PKC-theta inhibitors” (Pharmacopeia, LLC, priority 2006, dated 2011)

What was measured:
PKCθ = PKCθ (Homo sapiens, UniProt Q04759); experiment: Ki Pan Vera (PV) PKCθ; type: biochemical
Method: (§1) For Ki Pan Vera (PV) of PKCθ, entries identified with “A” had values below 100 nM; entries identified with “B” had values below 1 μM.

PKC delta = PKC delta (Homo sapiens, UniProt Q05655); experiment: Ki Pan Vera (PV) PKC delta; type: biochemical
PKC alpha = PKC alpha (Homo sapiens, UniProt P17252); experiment: Ki Pan Vera (PV) PKC alpha; type: biochemical
Method: [Worded in the source for another target; this target is reported under the same test.] as §1

[1] = test system: anti-CD3 induced interleukin-2 (IL-2) production; experiment: anti-CD3 induced IL-2 production in mice; type: in vivo
Method: The compounds of the invention were also tested in vivo.

SGK1 = target: T1, SGK1 (Homo sapiens, UniProt O00141); experiment: IC50 for kinase SGK (selectivity); type: biochemical
T1 sequence (O00141 1-431): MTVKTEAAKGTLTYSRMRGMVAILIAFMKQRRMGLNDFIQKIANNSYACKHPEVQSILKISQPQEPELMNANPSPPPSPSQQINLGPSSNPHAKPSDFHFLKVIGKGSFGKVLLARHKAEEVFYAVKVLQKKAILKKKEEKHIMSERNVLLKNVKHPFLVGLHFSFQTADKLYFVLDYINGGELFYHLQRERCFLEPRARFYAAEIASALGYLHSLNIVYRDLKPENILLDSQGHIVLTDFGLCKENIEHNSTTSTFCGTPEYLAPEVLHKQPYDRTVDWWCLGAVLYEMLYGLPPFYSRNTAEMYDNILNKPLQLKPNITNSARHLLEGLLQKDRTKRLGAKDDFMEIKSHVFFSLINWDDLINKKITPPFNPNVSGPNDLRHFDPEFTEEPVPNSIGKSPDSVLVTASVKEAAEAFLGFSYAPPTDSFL
Method: Entries identified with “1” had values above 15 nM; entries identified with “2” had values above 100 nM; entries identified with “3” had values above 1 μM; entries identified with “4” had values above 10 μM. In Table 2, “nd” stands for “not determined.”

Chain of PKC delta (Q05655 whole entry): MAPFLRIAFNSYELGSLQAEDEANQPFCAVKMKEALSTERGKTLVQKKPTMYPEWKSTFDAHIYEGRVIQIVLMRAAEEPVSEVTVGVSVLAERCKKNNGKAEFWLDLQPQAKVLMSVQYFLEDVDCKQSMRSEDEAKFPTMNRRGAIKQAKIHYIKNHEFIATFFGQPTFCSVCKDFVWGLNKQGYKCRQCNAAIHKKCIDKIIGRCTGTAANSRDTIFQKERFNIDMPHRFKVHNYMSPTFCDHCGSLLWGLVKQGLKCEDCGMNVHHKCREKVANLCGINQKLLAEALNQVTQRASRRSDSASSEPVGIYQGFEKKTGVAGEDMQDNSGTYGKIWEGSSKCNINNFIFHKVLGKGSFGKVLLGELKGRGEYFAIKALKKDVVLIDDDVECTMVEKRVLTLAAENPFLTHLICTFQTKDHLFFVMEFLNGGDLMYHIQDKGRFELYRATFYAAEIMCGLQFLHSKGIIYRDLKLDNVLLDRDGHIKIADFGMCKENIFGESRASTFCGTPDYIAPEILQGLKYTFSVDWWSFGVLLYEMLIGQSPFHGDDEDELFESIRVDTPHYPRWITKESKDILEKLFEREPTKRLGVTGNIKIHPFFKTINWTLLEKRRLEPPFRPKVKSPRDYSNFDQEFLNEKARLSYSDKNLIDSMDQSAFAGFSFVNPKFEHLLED
Chain of PKCθ (Q04759 whole entry): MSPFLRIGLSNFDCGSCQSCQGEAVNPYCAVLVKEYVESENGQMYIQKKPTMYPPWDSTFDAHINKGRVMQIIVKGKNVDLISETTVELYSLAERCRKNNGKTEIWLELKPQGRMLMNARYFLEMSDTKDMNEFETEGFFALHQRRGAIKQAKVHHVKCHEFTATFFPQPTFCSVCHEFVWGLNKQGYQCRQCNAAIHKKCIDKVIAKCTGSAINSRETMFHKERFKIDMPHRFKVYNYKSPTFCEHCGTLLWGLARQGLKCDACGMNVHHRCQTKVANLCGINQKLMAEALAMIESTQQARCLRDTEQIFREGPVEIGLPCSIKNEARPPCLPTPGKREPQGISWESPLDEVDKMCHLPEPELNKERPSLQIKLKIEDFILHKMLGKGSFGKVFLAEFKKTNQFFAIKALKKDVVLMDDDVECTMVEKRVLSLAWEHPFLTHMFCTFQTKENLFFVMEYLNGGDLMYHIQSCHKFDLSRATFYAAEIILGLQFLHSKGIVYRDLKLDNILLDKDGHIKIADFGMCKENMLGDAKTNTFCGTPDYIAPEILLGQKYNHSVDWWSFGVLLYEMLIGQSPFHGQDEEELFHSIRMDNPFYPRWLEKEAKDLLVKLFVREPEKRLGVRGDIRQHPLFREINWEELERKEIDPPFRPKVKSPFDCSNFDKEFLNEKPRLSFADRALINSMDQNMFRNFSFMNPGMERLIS

Row | Ki (PKCθ) [nM] | Ki (PKC delta) [nM] | Ki (PKC alpha) [nM] | IC50-SGK1 (nM) (SGK1) | IC50 (SGK1) [nM] | SMILES | % inhibition of IL-2 production ([1]; subcutaneous dose 30 mg/kg) [%] | % inhibition of IL-2 production ([1]; subcutaneous dose 1 mg/kg) [%]
1 | < 100 | > 15 | > 1000 | – | – | O=c1[nH]c2cnc(NC[C@@H]3CCNC3)nc2n1Cc1c(Cl)cccc1Cl [Compound 101] | 39 | –
2 | < 100 | > 15 | > 1000 | – | – | O=c1[nH]c2cnc(NC[C@@H]3CCNC3)nc2n1Cc1cccc(Cl)c1Cl [Compound 107] | 45 | –
3 | < 100 | > 100 | > 1000 | – | – | NCCCNc1ncc2[nH]c(=O)n(Cc3cc(Cl)ccc3Cl)c2n1 [Compound 115] | 40 | –
4 | < 100 | > 100 | > 10000 | Inactive | – | NCCCNc1ncc2[nH]c(=O)n(Cc3c(Cl)cccc3Cl)c2n1 [Compound 120, 9-(2,6-dichlorobenzyl)-2-(3-aminopropylamino)-7H-purin-8(9H)-one] | 40 | –
5 | < 100 | > 100 | > 10000 | – | > 1000 | NCCCNc1ncc2[nH]c(=O)n(Cc3ccccc3Br)c2n1 [Compound 127] | – | –
6 | < 1000 | > 100 | > 10000 | – | > 10000 | O=c1[nH]c2cnc(NC[C@@H]3CCNC3)nc2n1Cc1ccccc1Cl [Compound 128] | – | –
7 | < 100 | > 100 | > 10000 | Inactive | – | NCCCNc1ncc2[nH]c(=O)n(Cc3c(F)cccc3F)c2n1 [Compound 129] | – | –
8 | < 100 | > 100 | > 10000 | – | > 1000 | NCCCNc1ncc2[nH]c(=O)n(Cc3cc(F)ccc3C(F)(F)F)c2n1 [Compound 133] | – | –
9 | < 100 | > 100 | > 10000 | Inactive | – | NCCCNc1ncc2[nH]c(=O)n(Cc3ccccc3C(F)(F)F)c2n1 [Compound 136] | – | –
10 | < 100 | > 100 | > 10000 | – | > 10000 | O=c1[nH]c2cnc(NC[C@@H]3CCCNC3)nc2n1Cc1c(Cl)cccc1Cl [Compound 138] | – | –
11 | < 1000 | > 1000 | > 10000 | Inactive | – | NCCCNc1ncc2[nH]c(=O)n(Cc3ccccc3OC(F)(F)F)c2n1 [Compound 139] | – | –
12 | < 1000 | > 100 | > 10000 | – | > 10000 | O=c1[nH]c2cnc(NC[C@H]3CCCNC3)nc2n1Cc1c(Cl)cccc1Cl [Compound 140] | – | –
13 | < 1000 | > 100 | > 10000 | Inactive | – | O=c1[nH]c2cnc(NC[C@H]3CCCNC3)nc2n1Cc1ccccc1Br [Compound 141] | – | –
14 | < 1000 | > 100 | > 10000 | – | > 10000 | O=c1[nH]c2cnc(NC[C@H]3CCCNC3)nc2n1Cc1ccccc1C(F)(F)F [Compound 142] | – | –
15 | < 1000 | > 100 | > 10000 | – | > 10000 | O=c1[nH]c2cnc(NC[C@@H]3CCCNC3)nc2n1Cc1ccccc1C(F)(F)F [Compound 144] | – | –
16 | < 1000 | > 1000 | > 10000 | Inactive | – | O=c1[nH]c2cnc(NCC3CCNCC3)nc2n1Cc1ccccc1C(F)(F)F [Compound 145] | – | –
17 | < 100 | > 15 | > 1000 | – | > 10000 | O=c1[nH]c2ccc(NC[C@@H]3CCNC3)nc2n1Cc1c(Cl)cccc1Cl [Compound 147, (R)-3-(2,6-Dichlorobenzyl)-5-(pyrrolidin-3-ylmethylamino)-1H-imidazo[4,5-b]pyridin-2(3H)-one] | – | –
18 | < 100 | > 100 | > 10000 | Inactive | – | NCCCNc1ccc2[nH]c(=O)n(Cc3c(Cl)cccc3Cl)c2n1 [Compound 149] | – | –
19 | < 1000 | > 100 | > 1000 | – | > 10000 | O=c1[nH]c2cnc(NCC3CCNCC3)nc2n1Cc1ccccc1Br [Compound 201] | – | –
20 | < 1000 | > 100 | > 10000 | Inactive | – | O=c1[nH]c2cnc(NCC3CCCNC3)nc2n1Cc1ccccc1Cl (stereo not drawn) [Compound 203] | – | –
21 | < 1000 | > 100 | > 10000 | – | > 10000 | O=c1[nH]c2cnc(NCC3CCNC3)nc2n1Cc1ccccc1F (stereo not drawn) [Compound 204] | – | –
22 | < 1000 | > 100 | > 10000 | Inactive | – | O=c1[nH]c2cnc(NCC3CCNCC3)nc2n1Cc1c(Cl)cccc1Cl [Compound 205] | – | –
23 | < 1000 | > 100 | > 10000 | Inactive | – | O=c1[nH]c2cnc(NCC3CCNCC3)nc2n1Cc1ccccc1Cl [Compound 206] | – | –
24 | < 1000 | > 100 | > 10000 | Inactive | – | NCCCNc1ncc2[nH]c(=O)n(Cc3ccccc3F)c2n1 [Compound 208] | – | –
25 | < 1000 | > 100 | > 10000 | Inactive | – | NCCCNc1ccc2[nH]c(=O)n(Cc3ccccc3Cl)c2n1 [Compound 241] | – | –
26 | – | – | – | – | – | C=CC[C@@H]1/C=C(\C)C[C@H](C)C[C@H](OC)[C@H]2O[C@@](O)(C(=O)C(=O)N3CCCC[C@H]3C(=O)O[C@H](/C(C)=C/[C@@H]3CC[C@@H](O)[C@H](OC)C3)[C@H](C)[C@@H](O)CC1=O)[C@H](C)C[C@@H]2OC [FK506, reference compound] | – | 87
